Data on eight compounds can be found in patent US20240148821A1, “PHARMACEUTICAL USE OF CYCLIC PEPTIDE COMPOUND” (CHUGAI SEIYAKU KABUSHIKI KAISHA, priority 2021, published 2024).

Numbered stars: 1 amine (or outer) side, 2 acyl side, 3 side chain; on linkers, the order of the positions; unused ones are H or OH. Bridge positions count the residues as written; N and C are the ends. Square brackets hold non-standard residues; d marks the D form. Peptide text beside a SMILES is read from it. * marks the point of attachment. hPhe(3-Cl-4-CF3) = N[C@@H](CCc1ccc(C(F)(F)F)c(Cl)c1)C(=O)O; NEtPhe(4-CF3) = CCN[C@@H](Cc1ccc(C(F)(F)F)cc1)C(=O)O; X8 = CC(C)Oc1cc(CC[C@H](N[*:1])C(=O)[*:2])cc(Cl)c1Cl; NMeAbu(4,4,4-F3) = CN[C@@H](CC(F)(F)F)C(=O)O; NMePhe(4-Cl) = CN[C@@H](Cc1ccc(Cl)cc1)C(=O)O; hPhe(4-Cl) = N[C@@H](CCc1ccc(Cl)cc1)C(=O)O; NMedβ3hAla = C[C@H](CC(=O)[*:2])N(C)[*:1]; NMeGly(cPent) = CN[C@H](C(=O)O)C1CCCC1; NMeCha = CN[C@@H](CC1CCCCC1)C(=O)O; Azetidine(3,3-F2) = FC1(F)CN(*)C1; Hyp = O=C(O)[C@@H]1C[C@@H](O)CN1; NMeCba = CN[C@@H](CC1CCC1)C(=O)O; NMeChg = CN[C@H](C(=O)O)C1CCCCC1; NMeI = CC[C@H](C)[C@H](NC)C(=O)O; NMeE = CN[C@@H](CCC(=O)O)C(=O)O; NMeD = CN[C@@H](CC(=O)O)C(=O)O; NMeL = CN[C@@H](CC(C)C)C(=O)O; NMeV = CN[C@H](C(=O)O)C(C)C; d(β3hA) = C[C@@H](N)CC(=O)O; NMeS = CN[C@@H](CO)C(=O)O; Morpholide = C1CN(*)CCO1; NMeA = CN[C@@H](C)C(=O)O; NMeAib = CNC(C)(C)C(=O)O; Piperidide = C1CCN(*)CC1; Pyrrolidide = C1CCN(*)C1; Ac5c = NC1(C(=O)O)CCCC1; Aze = O=C(O)[C@@H]1CCN1; Ac4c = NC1(C(=O)O)CCC1; Aib = CC(C)(N)C(=O)O; X53 = CC1(C)CCN(*)C1; Sar = CNCC(=O)O; Propyl = CCC*

One assay has as its target protein-protein interaction between Kras and SOS1 (biotin-tagged human Kras loaded with GDP, His-tagged human SOS1) (Homo sapiens (Human), UniProt P01116, G12D). Nature of the assay: Protein-protein interaction inhibition between Kras and SOS1 (KrasG12D-SOS PPI) using AlphaScreen.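 Also: kras produced in E. coli, Ni-coupled donor beads and streptavidin acceptor beads, excitation 680 nm with emission detected at 520–620 nm via singlet oxygen transfer.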 Conditions: AlphaScreen; biotin-tagged human Kras loaded with GDP, His-tagged human SOS1; read-out: KRAS G12D-SOS PPI IC50. Format: biochemical. For orientation: In Alpha technology, singlet oxygen from a donor bead excites a nearby acceptor bead.
In the case of `CCO[C@@H]1C[C@H]2C(=O)NC3(CCCC3)C(=O)N(C)[C@@H](C3CCCCC3)C(=O)N(C)[C@H](C(=O)N3CCCC3)CC(=O)N(C)[C@@H](CC(F)(F)F)C(=O)N[C@@H]([C@@H](C)CC)C(=O)N(C)CC(=O)N(C)CC(=O)N(C)[C@@H](CC3CCCCC3)C(=O)N(C)CC(=O)N[C@@H](CCc3ccc(C(F)(F)F)c(Cl)c3)C(=O)N2C1` [Compound 1369] ([NMeAbu(4,4,4-F3)]I[Sar][Sar][NMeCha][Sar][hPhe(3-Cl-4-CF3)][Hyp](Et)[Ac5c][NMeChg][NMeD]-Pyrrolidide; lactam N-11), the IC50 came out at 0.55 nM.

With `CCCOC[C@H]1C(=O)N(C)CC(=O)N[C@@H](CCc2ccc(C(F)(F)F)c(Cl)c2)C(=O)N2CCC[C@H]2C(=O)NC2(CCCC2)C(=O)N(C)[C@@H]([C@@H](C)CC)C(=O)N(C)[C@H](C(=O)N2CCOCC2)CC(=O)N(C)[C@@H](CC(C)C)C(=O)N[C@@H]([C@@H](C)CC)C(=O)N(C)[C@@H](C)C(=O)N2CC[C@H]2C(=O)N1C` [Compound 693] ([NMeL]I[NMeA][Aze][NMeS](Propyl)[Sar][hPhe(3-Cl-4-CF3)]P[Ac5c][NMeI][NMeD]-Morpholide; lactam N-11), the IC50 amounted to 1.6 nM.

Regarding `CC[C@H](C)[C@@H]1NC(=O)[C@H](C)N(C)C(=O)C[C@@H](C(=O)N2CCCCC2)N(C)C(=O)[C@H](C2CCCCC2)N(C)C(=O)C2(CCCC2)NC(=O)[C@@H]2CCCN2C(=O)[C@H](CCc2cc(Cl)c(Cl)c(OC(C)C)c2)NC(=O)CN(C)C(=O)[C@H](CC2CCCCC2)N(C)C(=O)CN(C)C(=O)CN(C)C1=O` [Compound 2062] ([NMeA]I[Sar][Sar][NMeCha][Sar][X8]P[Ac5c][NMeChg][NMeD]-Piperidide; lactam N-11), the IC50 was found to be 6.9 nM.

As to `CC[C@H](C)[C@@H]1NC(=O)[C@H](C)N(C)C(=O)C[C@@H](C)NC(=O)[C@H](CC(C)C)N(C)C(=O)C(C)(C)NC(=O)[C@H](CC(C)C)N(C)C(=O)[C@H](CCc2ccc(Cl)cc2)NC(=O)CN(C)C(=O)[C@H](Cc2ccc(Cl)cc2)N(C)C(=O)CN(C)C(=O)CN(C)C1=O` [Compound 19] (cyclo([Aib][NMeL][d(β3hA)][NMeA]I[Sar][Sar][NMePhe(4-Cl)][Sar][hPhe(4-Cl)][NMeL])), the IC50 was determined as 50 nM.

Consider `CC[C@H](C)[C@@H]1NC(=O)[C@H](CC(C)C)N(C)C(=O)C[C@@H](C(=O)N2CCC(C)(C)C2)NC(=O)[C@H](C(C)C)N(C)C(=O)C2(CCCC2)NC(=O)[C@@H]2CCCN2C(=O)[C@H](CCc2ccc(C(F)(F)F)c(Cl)c2)NC(=O)CN(C)C(=O)[C@H](CC2CCCCC2)N(C)C(=O)[C@@H]2CCN2C(=O)[C@H](C)N(C)C1=O` [Compound 1280] ([NMeL]I[NMeA][Aze][NMeCha][Sar][hPhe(3-Cl-4-CF3)]P[Ac5c][NMeV]D-X53; lactam N-11), for which the IC50 amounted to 74 nM.

On to `CC[C@H](C)[C@@H]1NC(=O)[C@H](C)N(C)C(=O)C[C@@H](C)N(C)C(=O)[C@H](CC2CCC2)N(C)C(=O)C(C)(C)N(C)C(=O)[C@@H]2CCCN2C(=O)[C@H](CCc2ccc(C(F)(F)F)c(Cl)c2)NC(=O)CN(C)C(=O)[C@H](CC2CCCCC2)N(C)C(=O)[C@@H]2CCN2C(=O)[C@H](C)N(C)C1=O` [Compound 2152] (cyclo([Aze][NMeCha][Sar][hPhe(3-Cl-4-CF3)]P[NMeAib][NMeCba][NMedβ3hAla][NMeA]I[NMeA])), for which the IC50 turned out to be 71 nM.

With `CCO[C@@H]1C[C@H]2C(=O)NC3(CCC3)C(=O)N(C)[C@@H](C3CCCCC3)C(=O)N(C)[C@H](C)CC(=O)N(C)[C@@H](CC(C)C)C(=O)N[C@@H]([C@@H](C)CC)C(=O)N[C@@H](C)C(=O)N3CC[C@H]3C(=O)N(CC)[C@@H](Cc3ccc(C(F)(F)F)cc3)C(=O)N(C)CC(=O)N[C@@H](CCc3ccc(C(F)(F)F)c(Cl)c3)C(=O)N2C1` [Compound 743] (cyclo(A[Aze][NEtPhe(4-CF3)][Sar][hPhe(3-Cl-4-CF3)][Hyp](Et)[Ac4c][NMeChg][NMedβ3hAla][NMeL]I)), the IC50 turned out to be 40 nM.

With `CC[C@H](C)[C@@H]1NC(=O)[C@H](CC(C)C)N(C)C(=O)C[C@@H](C(=O)N2CCOCC2)N(C)C(=O)[C@H](C2CCCC2)N(C)C(=O)C2(CCCC2)NC(=O)[C@H](CCC(=O)N2CC(F)(F)C2)N(C)C(=O)[C@H](CCc2ccc(C(F)(F)F)c(Cl)c2)NC(=O)CN(C)C(=O)[C@H](CC2CCCCC2)N(C)C(=O)[C@@H]2CCN2C(=O)[C@H](C)N(C)C1=O` [Compound 2098] ([NMeL]I[NMeA][Aze][NMeCha][Sar][hPhe(3-Cl-4-CF3)][NMeE](Azetidine(3,3-F2))[Ac5c][NMeGly(cPent)][NMeD]-Morpholide; lactam N-11), the IC50 came to 8 nM.

The test system of the next assay is Human pancreatic cancer cell line AsPC-1 (G12D mutation Kras). In words: AsPC-1 cell growth inhibition (AsPC-1 CGI). Conditions: read-out: AsPC-1 cell growth inhibition, 50% growth inhibitory concentration (IC50 value); 96 hours, CellTiter-Glo, values classified in ranges. Type of assay: cell-based. Background: In ATP-based viability assays light output follows the ATP content of the culture.
Procedure: Test compounds were serially dilated with dimethyl sulfoxide, and 200 nL was then dispensed to a U-bottom 96-well plate using Labcyte Echo. […] The cell suspension was dispensed to a. plate containing a test compound at 100 μL per well and incubated at 37° C. in a 5% carbon dioxide gas incubator. 96 hours later, 80 μL of CellTiter-Glo (Promega) was added to each well and fluorescence was measured.
In the case of `CCO[C@@H]1C[C@H]2C(=O)NC3(CCCC3)C(=O)N(C)[C@@H](C3CCCCC3)C(=O)N(C)[C@H](C(=O)N3CCCC3)CC(=O)N(C)[C@@H](CC(F)(F)F)C(=O)N[C@@H]([C@@H](C)CC)C(=O)N(C)CC(=O)N(C)CC(=O)N(C)[C@@H](CC3CCCCC3)C(=O)N(C)CC(=O)N[C@@H](CCc3ccc(C(F)(F)F)c(Cl)c3)C(=O)N2C1` [Compound 1369] ([NMeAbu(4,4,4-F3)]I[Sar][Sar][NMeCha][Sar][hPhe(3-Cl-4-CF3)][Hyp](Et)[Ac5c][NMeChg][NMeD]-Pyrrolidide; lactam N-11), the IC50 was at most 20 nM.

For the compound `CCCOC[C@H]1C(=O)N(C)CC(=O)N[C@@H](CCc2ccc(C(F)(F)F)c(Cl)c2)C(=O)N2CCC[C@H]2C(=O)NC2(CCCC2)C(=O)N(C)[C@@H]([C@@H](C)CC)C(=O)N(C)[C@H](C(=O)N2CCOCC2)CC(=O)N(C)[C@@H](CC(C)C)C(=O)N[C@@H]([C@@H](C)CC)C(=O)N(C)[C@@H](C)C(=O)N2CC[C@H]2C(=O)N1C` [Compound 693] ([NMeL]I[NMeA][Aze][NMeS](Propyl)[Sar][hPhe(3-Cl-4-CF3)]P[Ac5c][NMeI][NMeD]-Morpholide; lactam N-11), the IC50 is at most 20 nM.
